Five compounds from ChEMBL document CHEMBL1201862, “PubChem BioAssay data set” (2004) can be followed below.

Among the test systems are HCC 2998; NCI-H460; DU-145; NCI-H23; A498; SW-620; HCT-116; CCRF-CEM; Hs-578T; SK-MEL-5; OVCAR-3; PC-3; SR; NCI/ADR-RES; A549; UACC-257; COLO 205; NCI-H226; HCT-15; SNB-75.
Assay in all cases: inhibition of tumour cell growth, NCI panel, 48 h

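Test compounds were applied to cells in 96-well plates for 48 hours at 5 doses. GI50 is the concentration that inhibits growth by half.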 Active and inactive are the calls of the source. No stated cut-off is given here; in the data, active = GI50 up to about 1.1 µM and inactive = higher.

Take `CC(C(=O)O)C(C)(O)C(=O)O` (stereo not given): the GI50 in the assay with HCC 2998, in the assay with NCI-H460, in the assay on DU-145, in the assay on NCI-H23, in the assay with A498 and in the assay on SW-620 was > 100 µM (inactive) each time. In addition, the GI50 in the assay with HCT-116, with CCRF-CEM, in the assay with Hs-578T, in the assay with SK-MEL-5, in the assay with OVCAR-3 and in the assay on PC-3 was > 100 µM (inactive) in each case. For the same compound, the GI50 in the assay on SR, with NCI/ADR-RES, in the assay on A549, in the assay with UACC-257, in the assay with COLO 205 and in the assay on NCI-H226 was > 100 µM (inactive) in each case. Moreover, the GI50 in the assay with HCT-15 was above 100 µM; with SNB-75 it was > 100 µM (inactive).
With `CC1OC(O[C@@H]2OC=C(C=O)[C@@]3(O)CC[C@H](C)[C@@H]23)C(O)C(O)C1O` (stereo not given in full), the GI50 with HCC 2998, in the assay on NCI-H460, in the assay with DU-145, in the assay on NCI-H23, with A498 and in the assay on SW-620 was > 100 µM (inactive) in each case. Also, the GI50 in the assay with HCT-116, in the assay on CCRF-CEM, in the assay on Hs-578T, in the assay on SK-MEL-5, in the assay with OVCAR-3 and with PC-3 was > 100 µM (inactive) throughout. The GI50 in the assay on SR, with NCI/ADR-RES, in the assay on A549, in the assay with UACC-257, in the assay with COLO 205 and with NCI-H226 was > 100 µM (inactive) each time. Also, the GI50 in the assay on HCT-15 was above 100 µM; in the assay on SNB-75, > 100 µM (inactive).
For `Cc1ccc(-c2n[nH]c(=O)[nH]2)cc1[N+](=O)[O-]`, the GI50 in the assay with HCC 2998 was 63.4 µM (inactive); in the assay on NCI-H460, > 100 µM (inactive); in the assay with DU-145, > 100 µM (inactive); in the assay on NCI-H23 it was > 100 µM (inactive); with A498, > 100 µM (inactive); in the assay with SW-620, > 100 µM (inactive). Besides, the GI50 in the assay with HCT-116 was > 100 µM (inactive); in the assay with CCRF-CEM it was > 100 µM (inactive); in the assay on Hs-578T, 3.01 µM (inactive); in the assay with SK-MEL-5, > 100 µM (inactive); in the assay with OVCAR-3 it was > 100 µM (inactive); in the assay with PC-3, > 100 µM (inactive). The GI50 in the assay with SR, in the assay on NCI/ADR-RES, in the assay with A549, in the assay with UACC-257, in the assay on COLO 205 and with NCI-H226 was > 100 µM (inactive) in each case. Also, the GI50 is above 100 µM in the assay with HCT-15 and 61 µM (inactive) with SNB-75.
On to `COc1c(OC(C)=O)c(OC(C)=O)cc2c1-c1ccc(SC)c(=O)cc1C(NC(C)=O)CC2` (stereo not given), for which the GI50 in the assay on HCC 2998 was 0.454 µM (active); with NCI-H460, 2.9 µM (inactive); in the assay on DU-145 it was 0.583 µM (active); with NCI-H23, 0.392 µM (active); with A498 it was 4.02 µM (inactive); in the assay with SW-620, 0.959 µM (active). The GI50 was 0.685 µM (active) in the assay on HCT-116; 0.384 µM (active) in the assay on CCRF-CEM; 0.22 µM (active) in the assay with Hs-578T; 0.184 µM (active) with SK-MEL-5; 0.142 µM (active) in the assay with OVCAR-3; 2.14 µM (inactive) in the assay on PC-3. The GI50 in the assay on SR was 0.448 µM (active); in the assay with NCI/ADR-RES, > 76.6 µM (inactive); with A549, 4.19 µM (inactive); with UACC-257, 3.72 µM (inactive); in the assay on COLO 205, 1.65 µM (inactive); in the assay with NCI-H226, 7.82 µM (inactive). In addition, the figures for the GI50 with HCT-15 and in the assay on SNB-75 were 9.77 µM and 0.299 µM (active), respectively.
Turning to `COc1cccc(-c2nc(O)c3ccccc3n2)c1OC`, the GI50 in the assay with HCC 2998, in the assay on NCI-H460, in the assay on DU-145, in the assay with NCI-H23, with A498 and in the assay on SW-620 was > 100 µM (inactive) in each case. Besides, the GI50 with HCT-116, in the assay with CCRF-CEM, in the assay with Hs-578T, with SK-MEL-5, with OVCAR-3 and in the assay with PC-3 was > 100 µM (inactive) each time. Further, the GI50 in the assay on SR, in the assay with NCI/ADR-RES, in the assay on A549, in the assay on UACC-257, with COLO 205 and in the assay with NCI-H226 was > 100 µM (inactive) throughout. The GI50 with HCT-15 was above 100 µM; in the assay on SNB-75 it was 46.1 µM (inactive).
